Data as given in PubChem BioAssay AID624129 (Sanford-Burnham Center for Chemical Genomics, 2012).
Active and inactive are the calls of the source. The rule behind the calls is not given here.

Experiments:
Test in all cases: CXCR6 receptor antagonists, dose response, cell-based, beta-arrestin, DiscoveRx, APJ panel, uHTS hits (AID 624129)
[1] = target: Apelin receptor (Homo sapiens) (UniProt P35414); conditions: CXCR6 beta-arrestin (DiscoveRx) antagonist cell assay, APJ
[2] = target: Beta-galactosidase (Escherichia coli) (UniProt Q8VNN2); conditions: CXCR6 beta-arrestin (DiscoveRx) antagonist cell assay, b-galactosidase
[3] = target: C-C chemokine receptor type 6 (Homo sapiens) (UniProt P51684); conditions: CXCR6 beta-arrestin (DiscoveRx) antagonist cell assay
[4] = target: C-X-C chemokine receptor type 6 (Homo sapiens) (UniProt O00574); conditions: CXCR6 beta-arrestin (DiscoveRx) antagonist cell assay
[5] = dose range 1, mean IC50 across replicates
[6] = CCR6, dose range 1, mean IC50 across replicates
[7] = CXCR6, dose range 1, mean IC50 across replicates
[8] = CXCR6, run 1, dose range 2, at 80 µM (top of the series)

Chain of C-X-C chemokine receptor type 6 (Homo sapiens) (O00574 whole entry, looked up): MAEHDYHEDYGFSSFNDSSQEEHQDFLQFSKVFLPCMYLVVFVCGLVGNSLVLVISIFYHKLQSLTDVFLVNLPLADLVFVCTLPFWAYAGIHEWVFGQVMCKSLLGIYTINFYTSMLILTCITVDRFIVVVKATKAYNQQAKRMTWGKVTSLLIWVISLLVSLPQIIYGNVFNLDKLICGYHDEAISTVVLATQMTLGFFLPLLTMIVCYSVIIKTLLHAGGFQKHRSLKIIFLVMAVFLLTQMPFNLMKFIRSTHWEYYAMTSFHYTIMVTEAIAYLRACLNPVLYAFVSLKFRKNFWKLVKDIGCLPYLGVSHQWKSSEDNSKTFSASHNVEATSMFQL
Chain of Beta-galactosidase (Escherichia coli) (Q8VNN2 whole entry, looked up): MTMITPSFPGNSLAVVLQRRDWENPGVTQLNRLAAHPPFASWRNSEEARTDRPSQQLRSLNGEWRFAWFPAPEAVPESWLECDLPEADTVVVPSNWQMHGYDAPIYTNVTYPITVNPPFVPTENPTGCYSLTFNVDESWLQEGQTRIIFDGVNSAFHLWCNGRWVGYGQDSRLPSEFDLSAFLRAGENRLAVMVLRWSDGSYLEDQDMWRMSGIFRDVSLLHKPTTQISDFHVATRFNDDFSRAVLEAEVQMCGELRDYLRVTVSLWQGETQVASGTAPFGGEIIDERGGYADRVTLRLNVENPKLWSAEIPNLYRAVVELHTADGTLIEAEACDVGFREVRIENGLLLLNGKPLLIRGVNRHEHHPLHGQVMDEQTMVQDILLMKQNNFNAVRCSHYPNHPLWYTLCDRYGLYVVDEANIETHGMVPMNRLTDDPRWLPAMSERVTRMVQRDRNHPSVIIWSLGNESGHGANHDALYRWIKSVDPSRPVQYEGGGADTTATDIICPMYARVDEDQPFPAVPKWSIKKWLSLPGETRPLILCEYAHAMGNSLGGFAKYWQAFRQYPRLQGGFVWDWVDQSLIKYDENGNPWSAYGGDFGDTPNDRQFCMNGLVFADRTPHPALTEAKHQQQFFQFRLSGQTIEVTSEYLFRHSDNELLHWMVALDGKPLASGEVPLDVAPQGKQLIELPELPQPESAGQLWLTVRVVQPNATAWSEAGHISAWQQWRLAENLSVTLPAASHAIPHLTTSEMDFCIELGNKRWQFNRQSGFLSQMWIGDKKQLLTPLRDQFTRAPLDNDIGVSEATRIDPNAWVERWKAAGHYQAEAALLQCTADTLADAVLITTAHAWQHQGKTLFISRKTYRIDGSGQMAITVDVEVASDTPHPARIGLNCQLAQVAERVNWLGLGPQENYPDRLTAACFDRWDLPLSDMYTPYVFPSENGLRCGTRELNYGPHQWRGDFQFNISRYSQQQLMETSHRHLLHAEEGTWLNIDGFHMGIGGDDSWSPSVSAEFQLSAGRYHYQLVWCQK

SMILES | IC50 ([1]; dose range 1) | IC50 [1, 5] | IC50 ([1]; run 2, dose range 1) | IC50 ([1]; run 3, dose range 1) | IC50 ([2]; dose range 1) | IC50 [2, 5] | IC50 ([3]; CCR6, dose range 1) | IC50 [3, 6] | IC50 ([3]; CCR6, run 2, dose range 1) | IC50 ([4]; CXCR6, dose range 1) | IC50 [4, 7] | IC50 ([4]; CXCR6, run 1, dose range 2) | IC50 ([4]; CXCR6, run 2, dose range 1) | IC50 ([4]; CXCR6, run 2, dose range 2) | inhibition [4, 8] | inhibition ([4]; CXCR6, run 1, dose range 2, at 20 µM (top of the series))
COc1ccc(NC(=O)/C(Cl)=C(/Cl)S(=O)Cc2ccccc2)cn1 (stereo not drawn) | 10.7 µM | 22.5 µM | 7.69 µM | 49 µM | > 80 µM (inactive) | > 80 µM | 5.44 µM | 5.05 µM | 4.67 µM | 6.13 µM | 6.54 µM | 6.75 µM | 6.11 µM | 7.15 µM |  | 
Cc1ccc2oc(/N=C(\N)NC(=O)C(C)(C)C)nc2c1 | 19.8 µM | 20.9 µM | 19 µM | 23.9 µM | > 80 µM (inactive) | > 80 µM | 11.2 µM | 12.3 µM | 13.4 µM | inactive | 16.7 µM |  | 16 µM |  | 106% | 
CCOc1ccccc1NC(=O)c1nc(S(=O)(=O)Cc2ccccc2)ncc1Cl | 13.4 µM | 13.4 µM | 13.4 µM | > 80 µM | > 80 µM (inactive) | > 80 µM | 8.24 µM | 7.46 µM | 6.69 µM | 9.59 µM | 10.7 µM | 11.2 µM | 11.5 µM | 10.7 µM |  | 
CCS(=O)(=O)c1ncc(Cl)c(C(=O)Nc2ccc(S(=O)(=O)N3CCC(C)CC3)cc2)n1 | 7.82 µM | 7.15 µM | 6.41 µM | 7.21 µM | > 80 µM (inactive) | > 80 µM | 5.88 µM | 5.71 µM | 5.55 µM | 7.4 µM | 8.21 µM | 8.3 µM | 7.89 µM | 9.26 µM |  | 
O=[N+]([O-])c1ccc(Sc2cccc[n+]2[O-])c2nonc12 | 21.5 µM | 19.7 µM | 17.5 µM | 20.1 µM | > 80 µM (inactive) | > 80 µM | 11.5 µM | 11.5 µM | 11.6 µM | > 80 µM (inactive) | > 80 µM |  | > 80 µM |  | 118% | 
CCOc1cc(Br)c(Br)c(C=Nc2ccc(NC(C)=O)cc2)c1O | 45.8 µM | 45.8 µM | > 80 µM | > 80 µM | > 80 µM (inactive) | > 80 µM |  | 40.4 µM | 40.4 µM | inactive | 19.8 µM | 5.38 µM | > 80 µM | 14.1 µM |  | 
O=C1CN(C(=O)CSc2nc3cc(Cl)ccc3c(=O)n2Cc2ccccc2)c2ccccc2N1 | > 80 µM (inactive) | > 80 µM | > 80 µM | > 80 µM | > 80 µM (inactive) | > 80 µM | 9.4 µM | 11.1 µM | 12.7 µM |  | 8.57 µM | 9.5 µM | > 80 µM | 7.63 µM |  | 
COc1ccc(C(=O)N/N=C(\C)c2ccccn2)cc1OC | 1.82 µM | 2.39 µM | 2.48 µM | 2.86 µM | > 80 µM (inactive) | > 80 µM | 2.06 µM | 2.38 µM | 2.71 µM | 2.56 µM | 1.99 µM | 1.65 µM | 2.6 µM | 1.14 µM |  | 
CC(=O)OCCNc1cc(Sc2nc3ccccc3[nH]2)c2nonc2c1[N+](=O)[O-] | 9.71 µM | 8.18 µM | 7.17 µM | 7.67 µM | 29.8 µM | 29.8 µM | 5.52 µM | 5.34 µM | 5.16 µM | 6.36 µM | 6.45 µM | 7.34 µM | 6.05 µM | 6.06 µM |  | 
O=C(Nc1nc(-c2ccccn2)cs1)Nc1ccc(F)cc1F | 8.6 µM | 9.05 µM | 9.65 µM | 8.89 µM | > 80 µM (inactive) | > 80 µM | 8.74 µM | 10.1 µM | 11.5 µM | 11.4 µM | 8.93 µM | 5.96 µM | 11.5 µM | 6.87 µM |  | 
CCCC(=O)OCCNc1cc(Sc2nccn2C)c2nonc2c1[N+](=O)[O-] | 8.29 µM | 6.22 µM | 4.43 µM | 5.96 µM | > 80 µM (inactive) | > 80 µM | 4.87 µM | 4.62 µM | 4.38 µM | 4.86 µM | 5.03 µM | 5.61 µM | 5.05 µM | 4.59 µM |  | 
CN(C)C(=O)CSc1cccc2cccnc12 |  | > 80 µM | > 80 µM | > 80 µM | > 80 µM (inactive) | > 80 µM |  | > 80 µM | > 80 µM | > 80 µM (inactive) | > 80 µM |  | > 80 µM |  | -25% | 
COc1ccc(C(=O)/C=C/C(=O)N(CC(=O)NC2CCCCC2)Cc2ccccc2)c(O)c1 |  | > 80 µM | > 80 µM | > 80 µM | > 80 µM (inactive) | > 80 µM |  | > 80 µM | > 80 µM | > 80 µM (inactive) | > 80 µM |  | > 80 µM |  | 9.34% | 
O=C1C=CC(=O)N1Cc1ccccc1 | 12 µM | 11 µM | 11.4 µM | 9.67 µM | > 80 µM (inactive) | > 80 µM | 6.91 µM | 7.21 µM | 7.51 µM | 10.8 µM | 8.3 µM |  | 5.84 µM |  | 122% | 
COc1cc(/C=C/c2ccc3cccc(O)c3n2)ccc1O | 15.3 µM | 19.1 µM | 20.7 µM | 21.4 µM | > 80 µM (inactive) | > 80 µM | 13 µM | 12.9 µM | 12.9 µM | inactive | 14.4 µM |  | 13.1 µM |  | 131% | 
CCO[C@@H]1OC(C(=O)N2CCN(Cc3ccccc3)CC2)=C[C@H](c2ccc(Br)cc2)[C@H]1CCCO | 16.6 µM | 19.4 µM | 21.1 µM | 20.4 µM | > 80 µM (inactive) | > 80 µM | 11.4 µM | 11.5 µM | 11.6 µM | inactive | 12.1 µM |  | 9.21 µM |  | 126% | 
O=C(CN1CCN(S(=O)(=O)c2ccc(Br)cc2)CC1)Nc1ccc2c(c1)OCO2 | 21.8 µM | 24.8 µM | 27.8 µM | > 80 µM | > 80 µM (inactive) | > 80 µM | 20.7 µM | 20.6 µM | 20.6 µM | inactive | 20.7 µM |  | 19.2 µM |  | 100% | 
Cc1ccc(S(=O)(=O)c2ccc([N+](=O)[O-])o2)cc1 | 9.88 µM | 10.9 µM | > 80 µM | 11.9 µM | > 80 µM (inactive) | > 80 µM |  | 8.34 µM | 8.34 µM | inactive | 11.8 µM |  | > 80 µM |  |  | 77.6%
C=C1C(=O)O[C@@H]2C[C@@H](C)[C@@H]3C=CC(=O)[C@@]3(C)[C@@H](OC(=O)CC(=O)O[C@H]3[C@@H]4C(=C)C(=O)O[C@@H]4C[C@@H](C)[C@@H]4C=CC(=O)[C@]43C)[C@H]12 | 4.62 µM | 4.97 µM | 5.28 µM | 5.02 µM | > 80 µM (inactive) | > 80 µM | 3.11 µM | 3.35 µM | 3.59 µM | 4.65 µM | 3.94 µM | 3.8 µM | 4.03 µM | 3.28 µM |  | 
COc1ccc(OC)c(/C=C/c2ccc3cccc(O)c3n2)c1 | 6.47 µM | 8.4 µM | 10.3 µM | 8.46 µM | > 80 µM (inactive) | > 80 µM | 3.73 µM | 5.88 µM | 8.03 µM | 4.15 µM | 5.39 µM | 5.17 µM | 5.26 µM | 6.98 µM |  | 
O=C(CSc1cccc2cccnc12)N1CCCC1 | 4.54 µM | 5.35 µM | 6.22 µM | 5.31 µM | > 80 µM (inactive) | > 80 µM | 4.22 µM | 5.29 µM | 6.36 µM | 10.7 µM | 6.17 µM | 4.06 µM | 6.29 µM | 3.6 µM |  | 
